From US7863297B2, “Methods of using 4-(amino)-2-(2,6-dioxo(3-piperidly))-isoindoline-3-dione for the treatment of myelodysplastic syndromes” (Celgene Corporation, priority 2002, dated 2011)
Read-outs that look alike come from different tables or passages of the source.

What was measured:
AML cells = assay: Mitogenic response to VEGF in AML cells; type: cell-based; conditions: by extinguishing ligand-induced Akt-phosphorylation
MDS patients [1] = assay: Expanded clinical study with additional 16 MDS patients; type: in vivo, human
Description: The clinical study was expanded with additional 16 MDS patients for at least eight weeks. According to the IPSS, 13 of these patients were categorized as low- or intermediate-1-risk patients and three patients were grouped as intermediate-2- or high-risk patients. According to the FAB classification, there were 11 patients with refractory anemia (RA) or RA with ringed sideroblasts (RARS), and five patients with RA with excess blasts (RAEB), RAEB in transformation (RAEB-T). […] Among these 16 patients who completed at least 8 weeks of monitoring, nine patients achieved an erythroid response as assessed by the International MDS Working Group Criteria. The erythroid responses consisted of transfusion independence in seven previously transfusion-dependent patients, a >2 g/dL rise in blood hemoglobin concentration in one patient in with transfusion-independent anemia, and a >50% decrease in RBC transfusion requirement in one transfusion-dependent patient. […] In addition, complete cytogenetic responses developed in five in eight patients with abnormal karyotypes at baseline. These five patients with complete cytogenetic responses all had the Del5q31-33 abnormality, which has been discovered to be a good prognostic factor for MDS. Indeed, all five patients who enrolled in this study with 5q-syndrome achieved a complete cytogenetic response and a major erythroid response.

MDS patients [2] = assay: Clinical study in MDS patients with RBC transfusion-dependence or symptomatic anemia
TNF-α production [3] = conditions: LPS-stimulated PBMC, cited from earlier work; for IC50: read-out: IC50 for inhibiting production of TNF-α
TNF-α production [4] = conditions: LPS-stimulated human whole blood, cited from earlier work
[5] = system: bone marrow progenitor formation; assay: MDS vs normal bone marrow progenitor formation in pre-clinical models; type: cell-based
[6] = system: production of various cytokines; assay: In vitro studies of effects on production of various cytokines, potency compared with thalidomide; type: cell-based; conditions: in vitro cytokine production studies
Description: The results of these studies are described below.

MDS patients [7] = conditions: MDS patients treated with recombinant human EPO; cited from earlier work
[8] = 25 mg daily, initial ten patients
[9] = hematologic responses, nine evaluable

Nc1cccc2c1CN(C1CCC(=O)NC1=O)C2=O (stereo not shown)
mitogenic response to VEGF (AML cells): abrogates mitogenic response to VEGF in AML cells | patients with 5q-syndrome who achieved a complete cytogenetic response and a major erythroid response (MDS patients [1]; all enrolled patients with 5q-syndrome): five | need for dose reduction by completion of eight weeks therapy (MDS patients [1]; all patients with starting dose of 25 mg): required dose reduction | patients who achieved an erythroid response (International MDS Working Group Criteria) (MDS patients [1]; among 16 patients with at least 8 weeks of monitoring, start 25 mg or 10 mg daily): nine | apoptotic index for myelodysplastic progenitors (MDS patients [1]; association with therapy): increased apoptotic index | normal hematopoietic progenitor cells (MDS patients [1]; association with therapy): recovery of normal hematopoietic progenitor cells | transfusion independence in previously transfusion-dependent patients (MDS patients [1]; erythroid responses): seven | minor platelet response (MDS patients [1]; human, in vivo): One | complete cytogenetic responses (MDS patients [1]; in eight patients with abnormal karyotypes at baseline): five | major erythroid response (MDS patients [1]; of 16 patients): eight | minor erythroid response (MDS patients [1]; of 16 patients): one | >50% decrease in RBC transfusion requirement (MDS patients [1]; transfusion-dependent patient): one | >2 g/dL rise in blood hemoglobin concentration (MDS patients [1]; transfusion-independent anemia): one | tolerability (MDS patients [2]; 10 mg continuous oral daily dose): well-tolerated with minimal myelosuppression | grade 3 fatigue necessitating dose reduction (MDS patients [2]; [8]): 1 patient | myelosuppression (higher than grade 3 common toxicity criteria or 50% decrease in leukocyte and platelet counts) necessitating dose reduction (MDS patients [2]; [8]): 9 patients | patients with IPSS Low/Int-1 who experienced hematologic benefit (MDS patients [2]; 6/7 patients with IPSS Low/Int-1): 86% | complete or partial cytogenetic remission (decrease in abnormal metaphases of more than 50%) (MDS patients [2]; among five patients evaluable for cytogenetic response): three | normalization of blast percentage (MDS patients [2]; among responders): 1 patient | patients who discontinued therapy prematurely (<2 weeks) (MDS patients [2]; due to cholecystitis, autoimmune hemolytic anemia, or patient refusal, of 15 patients): three | RBC transfusion-independence (MDS patients [2]; [9]): 4 patients | decrease in RBC transfusions of more than 50% (MDS patients [2]; [9]): 1 patient | increase in Hgb of more than 1.5 g (MDS patients [2]; [9]): 1 patient | Grade 1,2 drug-related myalgia (MDS patients [2]; limited to the 25 mg dose): 1 patient | Grade 1,2 drug-related pruritus or itchy scalp (MDS patients [2]; limited to the 25 mg dose): 6 patients | minor platelet response (increase of more than 30,000/μL) (MDS patients [2]; number of responses): one | evaluable patients who experienced hematologic benefit (MDS patients [2]; of nine evaluable patients, oral 25 mg daily reduced to 10 mg, IWG criteria): 66% | overall clinical activity (MDS patients [2]; patients with low/intermediate-1 risk MDS): remarkable erythropoietic and cytogenetic remitting activity | IC50 for inhibiting production of TNF-α (TNF-α production [3]): ~0.0259 µg/mL | IC50 (TNF-α production [3]): ~100 nM | IC50 for inhibiting production of TNF-α (TNF-α production [4]): ~0.1036 µg/mL | IC50 (TNF-α production [4]; read-out: IC50 for inhibiting production of TNF-α): ~480 nM | MDS vs normal bone marrow progenitor formation [5]: selectively suppresses MDS vs normal bone marrow progenitor formation | potency relative to thalidomide, in all studies [6]: at least 50 times

O=C1CCC(N2C(=O)c3ccccc3C2=O)C(=O)N1 (racemic) [Thalidomide, 2-(2,6-dioxo-3-piperidinyl)-1H-isoindole-1,3(2H)-dione, reference compound]
IC50 for inhibiting production of TNF-α (TNF-α production [3]): ~50.2 µg/mL | IC50 (TNF-α production [3]): ~194000 nM

recombinant human EPO: recombinant human erythropoietin (EPO), a hematopoietic growth factor
patients with sustained improvement in hemoglobin or decrease in transfusion requirement (MDS patients [7]): less than 25%
